Results reported in patent publication US9636324B2, “Use of 15-benzylidence-14-deoxy-11, 12 -dehyroandrographolide derivative in manufacture of medicaments for protecting liver and anti-hepatitis C virus” (Zhengzhou University, priority 2012, dated 2017).

Key:
[1] = tested on: bovine viral diarrhea virus (BVDV-AV69); assay: CPE observation of effects on cytopathy caused by BVDV in MDBK cells
Method: Pharmaceutical effects of drugs of the invention against cytopathy caused by inoculation of BVDV virus are investigated using MDBK (NBL-1) cells (purchased from Chinese Academy of Science's Shanghai Center for Type Culture Collection) and bovine viral diarrhea virus (BVDV-AV69) (purchased from China Institute of Veterinary Drugs Control). Ribavirin (R; Henan RunHong Pharmaceutical Co., Ltd; batch number: E0909604) is used as positive drug control. MDBK cells are prepared as a suspension (1×10^5/mL) in RPMI1640 culture medium which contains 10% in volume fetal bovine serum (Zhejiang Tianhang Biotechnology Co., Ltd; batch number: 100524), 100 μg/mL streptomycin (Shenzheng Huayao Nanfang Pharmaceutical Co., Ltd; batch number: N09081), 100 U/mL penicillin (North China Pharmaceutical Co., Ltd; batch number: E0909604), and are seeded in 96 well plates (Costar, US) at 200 μL/well, placed in an incubator (Binder, Germany) at 37° C. with 5% CO2 to culture the cell. In 24 h when cells grow into a single layer, virus solution of 100 TCID50 (TCID50=10^−2.5) is added and incubated for 1.5 h. Maintenance medium with the drug is added at 200 μL/well after 3×PBS washes.
After digestion of MDBK cells with trypsin, cells with a concentration of 1×10^5/mL are seeded into 96 well plates at 200 μL/well, placed in an incubator at 37° C. with 5% CO2 for 24 h. After growing into a single layer, cells are attacked using 100 TCID50 (TCID50=10^−2.5) virus and incubated for 1.5 h. The virus-containing maintenance medium is discarded, and cells are washed with PBS, followed by addition of drug-containing maintenance medium with different concentrations, and incubation in 5% CO2 at 37° C. Normal cell control, virus control, drug treatment and ribavirin treatment groups are set. The cytopathy developing status is recorded everyday by observing under an inverted microscope.

MDBK (NBL-1) cells = assay: MTT assay for cytotoxicity; type: cell-based, bovine; conditions: 0-7.5 μmol/L, 48 h
Method: The drug-containing medium is added and further incubated for 48 h. MTT is added (5 mg/mL) at 20 μL/well and cultured for 4 h, the supernatant is discarded and 150 μL DMSO is added, then the plate is shaken for 10 minutes and the absorbance is determined using a microplate reader using the wavelength 570 nm and a reference wavelength 450 nm. The cell survival rate is calculated after treatment of compounds: cell survival rate (%)=drug group A value/cell control group A value×100%, and the results are shown in FIG. 10. Cell proliferation inhibition rate (%)=100%−survival rate (%), half maximal (50%) toxic concentration (TC50) is calculated according to Reed-Muench method.

[2] = tested on: mice with ConA induced liver damage; assay: ConA induced immunological liver damage model in mice; type: in vivo, Kunming mice
Method: Kunming mice of clean grade (male, weight 20±2 g, supplied by the Laboratory Animal Center, Henan Province) are randomly divided into groups with 6 mice in each group. Bifendate (Xinchang Pharmaceutical Factory of Zhejiang Pharmaceutical Co., Ltd, 200 mg/kg) is used as positive control, andrographolide (AD) is provided by Furen Pharmaceutical Group Co., Ltd, and the test compounds are synthesized by the inventors with purities higher than 99.0%. Normal control group and model group are intragastrically given 0.5% sodium carboxymethylcellulose (CMC-Na), and test groups are given 0.5% CMC-Na suspensions with AD (0.88 mmol/kg), and low dosage (0.66 mmol/kg) and high dosage (0.88 mmol/kg) of compound A, B and C, respectively. The drugs are given for 3 days. One hour after the last administration, all mice except those in the normal control group are injected with a single dose of ConA (20 mg/kg) through the caudal vein. After 8 h, the eyeball is enucleated to collect blood, which is centrifuged at 3000 rpm for 15 min to separate serum. ALT and AST are tested according to the kit specification, respectively (Nanjing Jiancheng Bioengineering Institute). The left lobe of liver is taken to prepare 10% homogenate using physiological saline, MDA is determined according to the kit specification (Nanjing Jiancheng Bioengineering Institute). To 50 μL liver homogenate is added 2 mL of 0.5 mol/L KOH-methanol solution and kept at 50° C. water bath to isomerize for 20 minutes, then absorbance (A value) is measured at 278 nm, using the A value per mL of homogenate to represent the PGE2 content. Experimental data are expressed as average±standard deviation (X±s), analyzed with SPSS 11.5 statistic software, with P<0.05 meaning significant difference.
Kunming mice of clean grade (male, weight 20±2 g) are randomly divided into normal group, model group, bifendate (Zhejiang Wanbang Pharmaceutical Co., Ltd) positive control group (200 mg/kg), AD group (0.88 mmol/kg), low dosage group (0.66 mmol/kg) and high dosage (0.88 mmol/kg) group of compound D. ALT, AST, and MDA assay kits are purchased from Nanjing Jiancheng Bioengineering Institute. Other agents, drugs and experimental methods are the same as in EXAMPLE 1.
In experimental investigation of both models, the following grouping method is used: Kunming mice of clean grade (male, weight 20±2 g) are randomly divided into normal group, model group, bifendate group (200 mg/kg), AD group (0.88 mmol/kg), low dosage group (0.66 mmol/kg) and high dosage group (0.88 mmol/kg) of compound E, with 8 mice in each group. Other agents, drugs and experimental methods are the same as in EXAMPLE 1 and in EXAMPLE 4, respectively.

[3] = low dosage (printed 0.66 mol/kg), P<0.01

SMILES: C=C1CCC2C(C)(CO)C(O)CCC2(C)C1C=CC1=CC(=Cc2ccc(Cl)cc2)OC1=O (stereo not drawn) [Compound A]
- antiviral effect compared with AD ([1]; BVDV in MDBK cells): better antiviral effect than AD
- pharmaceutical effect against cytopathy caused by virus compared with ribavirin ([1]; BVDV in MDBK cells): better than ribavirin
- TI value (therapy index, TC50/IC50) ([1]; MDBK cells, BVDV-AV69, TC50 from MTT, IC50 from CPE): >127.6
- cytotoxicity to MDBK cells (MDBK (NBL-1) cells): do not show obvious cytotoxcity
- liver histopathologic section (HE staining) ([2]; HE stain, 200x, FIG. 5): no observation of extravasated blood in sinus hepaticus, liver cells show slightly granular degeneration and vacuolar degeneration, and no spotted and focal necrosis region is observed
- serum enzyme level relative to normal level ([2]; high dosage 0.88 mmol/kg): essentially decreased to normal level
- enzyme (ALT, AST) lowering effect compared to AD group ([2]; high dosage 0.88 mmol/kg vs AD 0.88 mmol/kg, P<0.05): better enzyme lowering effect
- PGE2 content in liver homogenate vs model group ([2]; high dosage 0.88 mmol/kg, P<0.01): notably reduce PGE2 content
- PGE2 content in liver homogenate vs model group ([2]; low dosage 0.66 mmol/kg, P<0.05 (A), P<0.01 (D)): notably reduce PGE2 content
- MDA content in liver homogenate vs model group [2, 3]: more obvious effect
- ability against liver lipid peroxidation compared with AD group [2, 3]: stronger resistant ability against liver lipid peroxidation
- protective effect against liver damage induced by ConA (summary) ([2]; mice, intragastric, 3 days): notably protective effect
